Assay results from patent US8815872B2, “Macrocyclics pyrimidines as aurora kinase inhibitors” (Merck Patent GmbH, priority 2008, dated 2014).

Assays:
[1] = from C=CCOc1cccc(Nc2ncc(F)c(N[C@H]3[C@@H](C(N)=O)[C@@H]4C=C[C@H]3C4)n2)c1; rcm bond; Grubbs 2nd generation; dichloromethane; 19.2 mM; 40.0 °C; 3.0 h
PKC-zeta = molecular target: T1, PKC-zeta (Homo sapiens, UniProt Q05513); assay: Other kinases, inhibition at 1 μM (Table 3); type: biochemical
T1 construct: purchased Caliper Life Sciences
Experimental: (§1) The Aurora and other kinase assays described here were performed on two Caliper Life Sciences systems, the LC3000 and the Desktop Profiler. These provide data on enzyme activity via measurement of the relative amounts of phosphorylated or unphosphorylated fluorescently labelled substrate peptide at the end of an enzymatic reaction. These different states of peptide are resolved by applying a potential difference across the sample. The presence of a charged phosphate group on the product (as opposed to the substrate) causes a different peptide mobility between the two peptides. This is visualized by excitation of a fluorescent label on the substrate and product peptides and represented as peaks within the analysis software.
(§2) The Desktop Profiler utilizes the same principal as the LC 3000 for calculating percentage conversion of a substrate to product. Caliper Life Sciences provided proprietary flash frozen pre-made 384 well plates containing selected kinases. Each column in the 384 well plate contained a particular selected kinase. A second plate, the ‘substrate plate’ contained a mix of fluorescently labeled peptide substrate and ATP. These were arranged in columns so that transfer for substrate plate to enzyme plate provided the correct enzyme with the correct substrate/ATP concentration.
(§3) Compounds were added to a thawed enzyme plate in the desired format, in single concentrations. Reactions were initiated by transfer of the ubstrate/ATP mix from the substrate plate. The enzyme plate was incubated for 90 mins at 25 °C. The reaction was stopped by addition of […] of Stop Buffer (100 mM HEPES pH 7.5, 0.015% Brij-35, 10 mM EDTA (Sigma, E7889)).
(§4) Plates were read in a manner identical to that of the LC3000, and the ratio between substrate and product peaks provided the activity of the enzyme in that well. This was best represented by a plate heat map which colors each well by percent inhibition as compared to positive and negative controls (no inhibitors and no ATP respectively).

VEGFR = assay: Other kinases, inhibition at 1 μM (Table 3); type: biochemical
Experimental: as §1, §2, §3, §4

AMPK = assay: Other kinases, inhibition at 1 μM (Table 3); type: biochemical
Experimental: as §1, §2, §3, §4

PKB-alpha = molecular target: T2, PKB-alpha (Homo sapiens, UniProt P31749); assay: Other kinases, inhibition at 1 μM (Table 3); type: biochemical
T2 construct: purchased Caliper Life Sciences
Experimental: as §1, §2, §3, §4

MAPK8 = assay: Other kinases, inhibition at 1 μM (Table 3); type: biochemical
Experimental: as §1, §2, §3, §4

FGFR1 = molecular target: T3, FGFR1 (Homo sapiens, UniProt P11362); assay: Other kinases, inhibition at 1 μM (Table 3); type: biochemical
T3 construct: purchased Caliper Life Sciences
Experimental: as §1, §2, §3, §4

BRSK2 = molecular target: T4, BRSK2 (Homo sapiens, UniProt Q8IWQ3); assay: Other kinases, inhibition at 1 μM (Table 3); type: biochemical
T4 construct: purchased Caliper Life Sciences
Experimental: as §1, §2, §3, §4

CK2 = assay: Other kinases, inhibition at 1 μM (Table 3); type: biochemical
Experimental: as §1, §2, §3, §4

MST4 = molecular target: T5, MST4 (Homo sapiens, UniProt Q9P289); assay: Other kinases, inhibition at 1 μM (Table 3); type: biochemical
T5 construct: purchased Caliper Life Sciences
Experimental: as §1, §2, §3, §4

MNK-1 = molecular target: T6, MNK-1 (Homo sapiens, UniProt Q9BUB5); assay: Other kinases, inhibition at 1 μM (Table 3); type: biochemical
T6 construct: purchased Caliper Life Sciences
Experimental: as §1, §2, §3, §4

PIM-2 = molecular target: T7, PIM-2 (Homo sapiens, UniProt Q9P1W9); assay: Other kinases, inhibition at 1 μM (Table 3); type: biochemical
T7 construct: purchased Caliper Life Sciences
Experimental: as §1, §2, §3, §4

IGF1-R = molecular target: T8, IGF1-R (Homo sapiens, UniProt P08069); assay: Other kinases, inhibition at 1 μM (Table 3); type: biochemical
T8 construct: purchased Caliper Life Sciences
Experimental: as §1, §2, §3, §4

SRPK1 = molecular target: T9, SRPK1 (Homo sapiens, UniProt Q96SB4); assay: Other kinases, inhibition at 1 μM (Table 3); type: biochemical
T9 construct: purchased Caliper Life Sciences
Experimental: as §1, §2, §3, §4

CHK1 = molecular target: T10, CHK1 (Homo sapiens, UniProt O14757); assay: Other kinases, inhibition at 1 μM (Table 3); type: biochemical
T10 construct: purchased Caliper Life Sciences
Experimental: as §1, §2, §3, §4

smMLCK = assay: Other kinases, inhibition at 1 μM (Table 3); type: biochemical
Experimental: as §1, §2, §3, §4

EphB3 = molecular target: T11, EphB3 (Homo sapiens, UniProt P54753); assay: Other kinases, inhibition at 1 μM (Table 3); type: biochemical
T11 construct: purchased Caliper Life Sciences
Experimental: as §1, §2, §3, §4

IKK-beta = molecular target: T12, IKK-beta (Homo sapiens, UniProt O14920); assay: Other kinases, inhibition at 1 μM (Table 3); type: biochemical
T12 construct: purchased Caliper Life Sciences
Experimental: as §1, §2, §3, §4

NEK6 = molecular target: T13, NEK6 (Homo sapiens, UniProt Q9HC98); assay: Other kinases, inhibition at 1 μM (Table 3); type: biochemical
T13 construct: purchased Caliper Life Sciences
Experimental: as §1, §2, §3, §4

FAK(h) = molecular target: T14, FAK(h) (Homo sapiens, UniProt Q05397); assay: Inhibition of other kinases IC50 (Table 2); type: biochemical
T14 construct: purchased Caliper Life Sciences
Experimental: as §1

Pyk2(h) = molecular target: T15, Pyk2(h) (Homo sapiens, UniProt Q14289); assay: Inhibition of other kinases IC50 (Table 2); type: biochemical
T15 construct: purchased Caliper Life Sciences
Experimental: as §1

Plk1(h) = molecular target: T16, Plk1(h) (Homo sapiens, UniProt P53350); assay: Other kinases, single-concentration inhibition (Table 3); type: biochemical; conditions: 1 μM
T16 construct: purchased Caliper Life Sciences
How it was run: (§5)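 Single-point screen: fluorescent peptide plus ATP, 90 min at 25 °C, EDTA stop, mobility-shift separation; % inhibition vs controls.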

Flt4(h) = molecular target: T17, Flt4(h) (Homo sapiens, UniProt P35916); assay: as above; type: biochemical; conditions: 1 μM
T17 construct: purchased Caliper Life Sciences
How it was run: as §5

c-RAF(h) = molecular target: T18, c-RAF(h) (Homo sapiens, UniProt P04049); assay: as above; type: biochemical; conditions: 1 μM
T18 construct: purchased Caliper Life Sciences
How it was run: as §5

FGFR1(h) = molecular target: T19, FGFR1(h) (Homo sapiens, UniProt P11362); assay: as above; type: biochemical; conditions: 1 μM
T19 construct: purchased Caliper Life Sciences
How it was run: as §5

CHK2(h) = molecular target: T20, CHK2(h) (Homo sapiens, UniProt O96017); assay: as above; type: biochemical; conditions: 1 μM
T20 construct: purchased Caliper Life Sciences
How it was run: as §5

Yes(h) = molecular target: T21, Yes(h) (Homo sapiens, UniProt P07947); assay: as above; type: biochemical; conditions: 1 μM
T21 construct: purchased Caliper Life Sciences
How it was run: as §5

DDR2(h) = molecular target: T22, DDR2(h) (Homo sapiens, UniProt Q16832); assay: as above; type: biochemical; conditions: 1 μM
T22 construct: purchased Caliper Life Sciences
How it was run: as §5

CDK2/cyclinA(h) = molecular target: T23, CDK2/cyclinA(h) (Homo sapiens, UniProt P24941); assay: as above; type: biochemical; conditions: 1 μM
T23 construct: purchased Caliper Life Sciences
How it was run: as §5

Plk3(h) = molecular target: T24, Plk3(h) (Homo sapiens, UniProt Q9H4B4); assay: as above; type: biochemical; conditions: 1 μM
T24 construct: purchased Caliper Life Sciences
How it was run: as §5

p70S6K(h) = molecular target: T25, p70S6K(h) (Homo sapiens, UniProt P23443); assay: as above; type: biochemical; conditions: 1 μM
T25 construct: purchased Caliper Life Sciences
How it was run: as §5

SIK(h) = molecular target: T26, SIK(h) (Homo sapiens, UniProt P57059); assay: as above; type: biochemical; conditions: 1 μM
T26 construct: purchased Caliper Life Sciences
How it was run: as §5

Abl(T315I)(h) = molecular target: T27, Abl(T315I)(h) (Homo sapiens, UniProt P00519, T315I); assay: Inhibition of other kinases IC50 (Table 2); type: biochemical
T27 construct: purchased Caliper Life Sciences
Experimental: as §1

T3 sequence (P11362 22-822, species assumed): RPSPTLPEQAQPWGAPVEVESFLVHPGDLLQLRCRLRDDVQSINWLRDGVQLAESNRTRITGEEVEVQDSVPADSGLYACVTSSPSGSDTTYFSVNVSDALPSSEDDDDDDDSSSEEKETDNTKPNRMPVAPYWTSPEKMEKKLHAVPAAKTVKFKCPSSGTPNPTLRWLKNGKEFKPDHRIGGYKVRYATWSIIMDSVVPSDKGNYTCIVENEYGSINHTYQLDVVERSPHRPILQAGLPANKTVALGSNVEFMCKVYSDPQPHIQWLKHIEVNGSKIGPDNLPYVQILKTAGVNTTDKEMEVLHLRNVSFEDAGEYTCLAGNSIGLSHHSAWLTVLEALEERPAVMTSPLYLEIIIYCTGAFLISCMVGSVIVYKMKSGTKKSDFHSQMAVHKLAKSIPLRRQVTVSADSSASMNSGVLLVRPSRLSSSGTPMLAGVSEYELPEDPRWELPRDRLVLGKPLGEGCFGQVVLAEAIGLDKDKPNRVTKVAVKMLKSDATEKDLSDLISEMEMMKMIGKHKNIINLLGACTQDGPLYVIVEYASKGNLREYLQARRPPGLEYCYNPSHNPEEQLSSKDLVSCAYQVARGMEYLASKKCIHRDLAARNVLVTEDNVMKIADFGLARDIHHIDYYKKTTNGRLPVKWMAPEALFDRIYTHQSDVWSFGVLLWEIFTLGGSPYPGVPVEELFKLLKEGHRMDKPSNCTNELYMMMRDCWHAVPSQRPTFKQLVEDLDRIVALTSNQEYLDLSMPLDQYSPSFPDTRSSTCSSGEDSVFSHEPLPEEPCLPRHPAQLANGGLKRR
T7 sequence (Q9P1W9 whole entry, species assumed): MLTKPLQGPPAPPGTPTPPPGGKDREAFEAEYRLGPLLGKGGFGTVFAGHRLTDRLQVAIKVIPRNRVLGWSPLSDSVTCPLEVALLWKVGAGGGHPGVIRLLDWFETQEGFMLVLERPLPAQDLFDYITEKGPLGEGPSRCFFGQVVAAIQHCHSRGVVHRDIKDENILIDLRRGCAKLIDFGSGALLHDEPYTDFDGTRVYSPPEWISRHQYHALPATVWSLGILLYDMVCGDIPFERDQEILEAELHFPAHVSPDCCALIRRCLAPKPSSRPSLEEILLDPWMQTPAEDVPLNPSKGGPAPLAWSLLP
T2 sequence (P31749 whole entry, species assumed): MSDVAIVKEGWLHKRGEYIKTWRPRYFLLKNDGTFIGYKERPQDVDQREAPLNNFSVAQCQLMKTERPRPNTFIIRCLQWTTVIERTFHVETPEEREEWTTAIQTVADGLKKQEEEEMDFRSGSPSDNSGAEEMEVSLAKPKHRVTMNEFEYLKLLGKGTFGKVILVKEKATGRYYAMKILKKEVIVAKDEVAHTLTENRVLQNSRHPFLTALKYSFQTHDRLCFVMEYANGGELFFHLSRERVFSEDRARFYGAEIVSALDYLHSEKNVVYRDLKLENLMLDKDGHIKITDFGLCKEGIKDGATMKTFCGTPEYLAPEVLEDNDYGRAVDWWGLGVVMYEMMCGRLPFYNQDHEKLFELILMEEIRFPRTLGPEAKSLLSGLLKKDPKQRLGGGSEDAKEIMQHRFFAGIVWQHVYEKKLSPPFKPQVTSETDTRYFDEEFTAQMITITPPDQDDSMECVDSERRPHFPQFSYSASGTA
T6 sequence (Q9BUB5 whole entry, species assumed): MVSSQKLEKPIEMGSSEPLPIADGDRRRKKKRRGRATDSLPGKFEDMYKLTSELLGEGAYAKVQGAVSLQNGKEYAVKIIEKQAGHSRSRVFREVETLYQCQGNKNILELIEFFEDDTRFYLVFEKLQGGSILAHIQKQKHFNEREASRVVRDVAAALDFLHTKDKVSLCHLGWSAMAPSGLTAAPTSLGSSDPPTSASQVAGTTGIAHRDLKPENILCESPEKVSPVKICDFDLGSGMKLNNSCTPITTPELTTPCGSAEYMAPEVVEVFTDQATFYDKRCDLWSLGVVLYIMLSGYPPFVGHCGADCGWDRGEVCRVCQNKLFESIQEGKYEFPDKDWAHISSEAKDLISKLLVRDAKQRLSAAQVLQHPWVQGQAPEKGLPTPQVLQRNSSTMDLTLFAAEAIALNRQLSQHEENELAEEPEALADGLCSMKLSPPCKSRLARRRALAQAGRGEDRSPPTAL
T4 sequence (Q8IWQ3 whole entry, species assumed): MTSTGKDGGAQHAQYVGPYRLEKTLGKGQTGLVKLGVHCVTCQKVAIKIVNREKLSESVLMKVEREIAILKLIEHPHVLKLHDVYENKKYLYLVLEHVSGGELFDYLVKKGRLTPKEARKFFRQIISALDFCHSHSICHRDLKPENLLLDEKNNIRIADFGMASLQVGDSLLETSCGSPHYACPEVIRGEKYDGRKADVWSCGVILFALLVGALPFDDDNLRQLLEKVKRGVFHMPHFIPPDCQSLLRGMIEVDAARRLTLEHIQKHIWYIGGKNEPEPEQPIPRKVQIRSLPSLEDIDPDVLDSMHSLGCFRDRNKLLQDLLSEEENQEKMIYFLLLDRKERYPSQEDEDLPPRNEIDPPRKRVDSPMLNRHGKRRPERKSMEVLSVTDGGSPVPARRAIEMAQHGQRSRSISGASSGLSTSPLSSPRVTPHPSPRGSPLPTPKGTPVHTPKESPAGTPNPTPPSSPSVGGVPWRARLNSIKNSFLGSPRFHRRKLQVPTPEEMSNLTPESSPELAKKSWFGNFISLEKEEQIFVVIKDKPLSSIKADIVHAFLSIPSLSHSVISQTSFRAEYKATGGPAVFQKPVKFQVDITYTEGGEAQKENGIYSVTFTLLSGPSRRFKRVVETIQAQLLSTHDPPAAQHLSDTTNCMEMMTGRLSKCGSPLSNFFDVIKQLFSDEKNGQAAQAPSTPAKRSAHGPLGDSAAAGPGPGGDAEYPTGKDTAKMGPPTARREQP
T5 sequence (Q9P289 whole entry, species assumed): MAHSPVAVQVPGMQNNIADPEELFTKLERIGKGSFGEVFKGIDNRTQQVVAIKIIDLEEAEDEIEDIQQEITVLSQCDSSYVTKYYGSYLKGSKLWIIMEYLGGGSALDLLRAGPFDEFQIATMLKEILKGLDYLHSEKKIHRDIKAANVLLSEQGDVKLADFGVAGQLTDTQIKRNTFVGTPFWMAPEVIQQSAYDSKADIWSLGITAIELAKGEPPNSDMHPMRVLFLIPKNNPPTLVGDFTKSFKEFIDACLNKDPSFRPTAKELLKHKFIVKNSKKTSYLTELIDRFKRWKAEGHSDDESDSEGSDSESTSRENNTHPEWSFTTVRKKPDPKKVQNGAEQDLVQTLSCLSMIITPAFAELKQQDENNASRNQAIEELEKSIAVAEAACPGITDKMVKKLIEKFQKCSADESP
T1 sequence (Q05513 whole entry): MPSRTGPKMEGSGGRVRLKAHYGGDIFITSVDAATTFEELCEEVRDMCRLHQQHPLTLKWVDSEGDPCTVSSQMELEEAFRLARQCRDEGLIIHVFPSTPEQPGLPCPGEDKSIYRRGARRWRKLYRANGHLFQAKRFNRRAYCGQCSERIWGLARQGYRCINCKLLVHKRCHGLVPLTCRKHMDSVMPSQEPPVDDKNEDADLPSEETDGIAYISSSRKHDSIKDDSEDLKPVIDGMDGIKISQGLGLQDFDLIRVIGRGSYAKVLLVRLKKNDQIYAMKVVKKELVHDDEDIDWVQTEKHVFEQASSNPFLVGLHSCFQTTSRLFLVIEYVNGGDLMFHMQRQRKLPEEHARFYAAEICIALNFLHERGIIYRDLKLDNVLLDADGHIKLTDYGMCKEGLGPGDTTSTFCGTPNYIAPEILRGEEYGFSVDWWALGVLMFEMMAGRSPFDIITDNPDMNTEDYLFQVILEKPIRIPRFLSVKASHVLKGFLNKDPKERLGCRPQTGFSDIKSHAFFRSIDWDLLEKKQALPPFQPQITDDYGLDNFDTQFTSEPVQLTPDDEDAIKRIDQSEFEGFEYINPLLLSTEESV
T12 sequence (O14920 whole entry, species assumed): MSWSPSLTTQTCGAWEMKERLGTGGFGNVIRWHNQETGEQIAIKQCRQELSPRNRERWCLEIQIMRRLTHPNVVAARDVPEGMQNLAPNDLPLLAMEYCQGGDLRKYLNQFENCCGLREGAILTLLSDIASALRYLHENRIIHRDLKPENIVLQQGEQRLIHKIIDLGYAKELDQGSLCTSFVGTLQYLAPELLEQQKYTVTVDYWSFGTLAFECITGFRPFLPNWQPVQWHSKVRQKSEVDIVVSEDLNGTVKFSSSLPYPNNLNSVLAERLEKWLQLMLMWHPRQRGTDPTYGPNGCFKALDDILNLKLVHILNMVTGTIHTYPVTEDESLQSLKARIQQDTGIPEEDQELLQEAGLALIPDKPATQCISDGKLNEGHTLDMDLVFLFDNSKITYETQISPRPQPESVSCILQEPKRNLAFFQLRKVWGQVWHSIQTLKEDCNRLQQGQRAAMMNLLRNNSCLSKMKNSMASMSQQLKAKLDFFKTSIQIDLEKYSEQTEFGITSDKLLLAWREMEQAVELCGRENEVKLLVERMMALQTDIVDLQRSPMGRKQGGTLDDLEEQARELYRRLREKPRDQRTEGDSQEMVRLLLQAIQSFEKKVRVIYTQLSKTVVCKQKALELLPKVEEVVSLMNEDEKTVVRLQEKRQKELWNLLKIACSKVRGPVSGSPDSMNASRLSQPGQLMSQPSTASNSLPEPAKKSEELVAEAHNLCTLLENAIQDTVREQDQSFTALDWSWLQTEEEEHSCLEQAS
T19 sequence (P11362 22-822): as the sequence (P11362 22-822, species assumed) above
T13 sequence (Q9HC98 whole entry, species assumed): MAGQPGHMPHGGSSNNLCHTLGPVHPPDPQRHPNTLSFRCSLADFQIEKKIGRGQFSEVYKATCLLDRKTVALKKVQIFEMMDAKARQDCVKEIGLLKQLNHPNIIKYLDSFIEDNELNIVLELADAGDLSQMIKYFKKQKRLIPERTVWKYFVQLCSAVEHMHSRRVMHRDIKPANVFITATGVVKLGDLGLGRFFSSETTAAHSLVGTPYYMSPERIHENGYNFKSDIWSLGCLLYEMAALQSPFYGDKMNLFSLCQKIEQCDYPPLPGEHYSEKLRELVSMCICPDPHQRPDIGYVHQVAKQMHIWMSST

Work on C=C[C@@H]1C[C@@H]2/C=C/COc3cccc(c3)Nc3ncc(F)c(n3)N[C@H]2[C@H]1C(N)=O (single isomer, unassigned) [Example 3] yielded a ring closure, yield of all isomers [1] of 15%.

With Fc1cnc2nc1NC1CCCC(C1)OC/C=C\COc1cccc(c1)N2 (single isomer, unassigned) [Example 33, (16Z)-6-fluoro-14,19-dioxa-2,4,8,26-tetraazatetracyclo[18.3.1.1˜3,7˜0.1˜9,13˜]hexacosa-1(24),3(26),4,6,16,20,22-heptaene] the “% inhibition PKC-zeta” value (PKC-zeta) was 104%, the “% inhibition VEGFR” value (VEGFR) was 49% and the “% inhibition AMPK” value (AMPK) was 76%. For the same molecule, the “% inhibition PKB-alpha” value (PKB-alpha) was 85%, the “% inhibition MAPK8” value (MAPK8) was 61% and the inhibition at 1 µM (FGFR1) was 74%. For the same molecule, the inhibition at 1 µM (BRSK2) was 81%, the “% inhibition CK2” value (CK2) was 96% and the “% inhibition MST4” value (MST4) was 89%. The “% inhibition MNK-1” value (MNK-1) was 95%, the “% inhibition PIM-2” value (PIM-2) was 85% and the inhibition at 1 µM (IGF1-R) was 82%. For the same molecule, the inhibition at 1 µM (SRPK1) was 83%, the “% inhibition CHK1” value (CHK1) was 98% and the “% inhibition smMLCK” value (smMLCK) was 92%. For the same molecule, the inhibition at 1 µM (EphB3) was 54% and the inhibition at 1 µM (IKK-beta) was 78%.

With NC(=O)[C@H]1[C@H]2C[C@H]3[C@H]1Nc1nc(ncc1F)Nc1cccc(c1)CSS[C@@H]3C2 [Example 10] the “% inhibition PKC-zeta” value (PKC-zeta) was 99%, the “% inhibition NEK6” value (NEK6) was 93% and the “% inhibition VEGFR” value (VEGFR) was 15%. For the same molecule, the “% inhibition AMPK” value (AMPK) was 38%, the “% inhibition PKB-alpha” value (PKB-alpha) was 93% and the “% inhibition MAPK8” value (MAPK8) was 9%. For the same molecule, the inhibition at 1 µM (FGFR1) was 10%, the inhibition at 1 µM (BRSK2) was 26% and the “% inhibition CK2” value (CK2) was 91%. For the same molecule, the “% inhibition MST4” value (MST4) was 59%, the “% inhibition MNK-1” value (MNK-1) was 98% and the “% inhibition PIM-2” value (PIM-2) was 70%. The inhibition at 1 µM (IGF1-R) was 2%, the inhibition at 1 µM (SRPK1) was 65% and the “% inhibition CHK1” value (CHK1) was 73%. The “% inhibition smMLCK” value (smMLCK) was 39%, the inhibition at 1 µM (EphB3) was 4% and the inhibition at 1 µM (IKK-beta) was 82%.

With NC(=O)[C@H]1[C@H]2C[C@H]3[C@H]1Nc1nc(ncc1F)Nc1cccc(c1)OCCS[C@@H]3C2 [Example 20] the IC50 (FAK(h)) was 101 to 1000 nM and the IC50 (Pyk2(h)) was 101 to 1000 nM.

With CN1CCN(c2ccc3cc2OCCS[C@@H]2C[C@@H]4C[C@H]2[C@@H](Nc2nc(ncc2F)N3)[C@H]4C(N)=O)CC1 [Example 22] the “% inhibition Plk1(h)” value (Plk1(h)) was 87%, the “% inhibition Flt4(h)” value (Flt4(h)) was 11% and the “% inhibition c-RAF(h)” value (c-RAF(h)) was 107%. For the same molecule, the “% inhibition FGFR1(h)” value (FGFR1(h)) was 5%, the “% inhibition CHK2(h)” value (CHK2(h)) was 64% and the “% inhibition Yes(h)” value (Yes(h)) was 2%. The “% inhibition DDR2(h)” value (DDR2(h)) was 96%, the “% inhibition CDK2/cyclinA(h)” value (CDK2/cyclinA(h)) was 96% and the “% inhibition Plk3(h)” value (Plk3(h)) was 104%. For the same molecule, the “% inhibition p70S6K(h)” value (p70S6K(h)) was 83% and the “% inhibition SIK(h)” value (SIK(h)) was 25%.

NC(=O)[C@H]1[C@H]2C[C@H]3[C@H]1Nc1nc(ncc1F)Nc1cccc(c1)NC(=O)CS[C@@H]3C2 [Example 27] gave an IC50 (Abl(T315I)(h)) of 1 to 100 nM.
